The conditions of this data set: in vivo test of Example 17. As to the method: The tolerability, pharmacokinetics, and pharmacodynamics of the formulations from examples 1 and 2 were evaluated in Dutch belted rabbits through 6 months. 112 eyes of naïve Dutch belted rabbits ([…]) were bilaterally dosed with either a necked fiber or a coiled fiber and were sacrificed at 1, 3 and 6 months to test for biocompatibility or pharmacokinetics.

For `CNC(=O)c1ccccc1Sc1ccc2c(/C=C/c3ccccn3)n[nH]c2c1` [Axitinib], the “Toxicity of the delivered amounts” value is “not toxic”.

The values are drawn from patent US11413250B2, “Shape changing drug delivery devices and methods” (Incept, LLC, priority 2015, dated 2022).
